≈ marks a conversion by molar mass, not a printed value. Calls of active or inactive are those of the source. The rule behind the calls is not given here.
How the values were obtained:
Escherichia coli [1] = assay: Synergistic antibacterial activity against carbapenem-resistant Escherichia coli 541588 assessed as reduction in microbial growth at 4 ug/ml measured after 16 to 18 hrs in presence of meropenem by microbial dilution method; type: functional; conditions: dose 4 µg/ml, time 16-18 hrs
Klebsiella pneumoniae [2] = assay: Synergistic antibacterial activity against carbapenem-resistant Klebsiella pneumoniae 552439 assessed as reduction in microbial growth at 4 ug/ml measured after 16 to 18 hrs in presence of meropenem by microbial dilution method; type: functional; conditions: dose 4 µg/ml, time 16-18 hrs
Escherichia coli [3] = assay: Synergistic antibacterial activity against carbapenem-resistant Escherichia coli BAA-2471 assessed as reduction in microbial growth at 0.5 ug/ml measured after 16 to 18 hrs in presence of meropenem by microbial dilution method; type: functional; conditions: dose 0.5 µg/ml, time 16-18 hrs
Klebsiella pneumoniae [4] = assay: Synergistic antibacterial activity against carbapenem-resistant Klebsiella pneumoniae BAA-2473 assessed as reduction in microbial growth at 0.5 ug/ml measured after 16 to 18 hrs in presence of imipenem by microbial dilution method; type: functional; conditions: dose 0.5 µg/ml, time 16-18 hrs
Escherichia coli [5] = assay: Synergistic antibacterial activity against carbapenem-resistant Escherichia coli BAA-2471 assessed as reduction in microbial growth at 16 ug/ml measured after 16 to 18 hrs in presence of imipenem by microbial dilution method; type: functional; conditions: dose 16 µg/ml, time 16-18 hrs
Klebsiella pneumoniae [6] = assay: Synergistic antibacterial activity against carbapenem-resistant Klebsiella pneumoniae BAA-2473 assessed as reduction in microbial growth at 8 ug/ml measured after 16 to 18 hrs in presence of imipenem by microbial dilution method; type: functional; conditions: dose 8 µg/ml, time 16-18 hrs
Klebsiella pneumoniae [7] = assay: Synergistic antibacterial activity against carbapenem-resistant Klebsiella pneumoniae BAA-2473 assessed as reduction in microbial growth at 0.5 ug/ml measured after 16 to 18 hrs in presence of meropenem by microbial dilution method; type: functional; conditions: dose 0.5 µg/ml, time 16-18 hrs
[8] = Inhibition of IMP-1 (unknown origin) using FC5 as substrate preincubated for 10 mins followed by substrate addition and measured immediately by fluorescence based analysis; design: species or system Bacteria
[9] = target: Metallo-beta-lactamase type 2 (Bacteria) (UniProt C7C422); assay: Induction of thermal stabilization of NDM-1 (unknown origin) assessed as melting temperature at 6.25 uM by differential scanning fluorimetry analysis
Klebsiella pneumoniae [10] = assay: Synergistic antibacterial activity against carbapenem-resistant Klebsiella pneumoniae 538961 assessed as reduction in microbial growth at 16 ug/ml measured after 16 to 18 hrs in presence of imipenem by microbial dilution method; type: functional; conditions: dose 16 µg/ml, time 16-18 hrs
[11] = tested on: Klebsiella pneumoniae subsp. pneumoniae; assay: Synergistic antibacterial activity against carbapenem-resistant Klebsiella pneumoniae subsp. pneumoniae BAA-2470 assessed as reduction in microbial growth at 8 ug/ml measured after 16 to 18 hrs in presence of meropenem by microbial dilution method; type: functional; conditions: dose 8 µg/ml, time 16-18 hrs
[12] = target: Metallo-beta-lactamase type 2 (Bacteria) (UniProt C7C422); assay: Induction of thermal stabilization of NDM-1 (unknown origin) assessed as melting temperature at 50 uM by differential scanning fluorimetry analysis
Escherichia coli [13] = assay: Synergistic antibacterial activity against carbapenem-resistant Escherichia coli BAA-2469 assessed as reduction in microbial growth at 8 ug/ml measured after 16 to 18 hrs in presence of imipenem by microbial dilution method; type: functional; conditions: dose 8 µg/ml, time 16-18 hrs
[14] = tested on: Klebsiella pneumoniae subsp. pneumoniae; assay: Synergistic antibacterial activity against carbapenem-resistant Klebsiella pneumoniae BAA-2470 assessed as reduction in microbial growth at 16 ug/ml measured after 16 to 18 hrs in presence of imipenem by microbial dilution method; type: functional; conditions: dose 16 µg/ml, time 16-18 hrs
Escherichia coli [15] = assay: Synergistic antibacterial activity against carbapenem-resistant Escherichia coli 565988 assessed as reduction in microbial growth at 4 ug/ml measured after 16 to 18 hrs in presence of meropenem by microbial dilution method; type: functional; conditions: dose 4 µg/ml, time 16-18 hrs
Escherichia coli [16] = assay: Synergistic antibacterial activity against carbapenem-resistant Escherichia coli 565988 assessed as reduction in microbial growth at 16 ug/ml measured after 16 to 18 hrs in presence of meropenem by microbial dilution method; type: functional; conditions: dose 16 µg/ml, time 16-18 hrs
Escherichia coli [17] = assay: Synergistic antibacterial activity against carbapenem-resistant Escherichia coli 567975 assessed as reduction in microbial growth at 16 ug/ml measured after 16 to 18 hrs in presence of imipenem by microbial dilution method; type: functional; conditions: dose 16 µg/ml, time 16-18 hrs
Escherichia coli [18] = assay: Synergistic antibacterial activity against carbapenem-resistant Escherichia coli BAA-2471 assessed as reduction in microbial growth at 0.5 ug/ml measured after 16 to 18 hrs in presence of imipenem by microbial dilution method; type: functional; conditions: dose 0.5 µg/ml, time 16-18 hrs
Escherichia coli [19] = assay: Synergistic antibacterial activity against carbapenem-resistant Escherichia coli 541588 assessed as reduction in microbial growth at 16 ug/ml measured after 16 to 18 hrs in presence of imipenem by microbial dilution method; type: functional; conditions: dose 16 µg/ml, time 16-18 hrs
Klebsiella pneumoniae [20] = assay: Synergistic antibacterial activity against carbapenem-resistant Klebsiella pneumoniae 571278 assessed as reduction in microbial growth at 4 ug/ml measured after 16 to 18 hrs in presence of imipenem by microbial dilution method; type: functional; conditions: dose 4 µg/ml, time 16-18 hrs
Escherichia coli [21] = assay: Synergistic antibacterial activity against carbapenem-resistant Escherichia coli BAA-2469 assessed as reduction in microbial growth at 8 ug/ml measured after 16 to 18 hrs in presence of meropenem by microbial dilution method; type: functional; conditions: dose 8 µg/ml, time 16-18 hrs
Klebsiella pneumoniae [22] = assay: Synergistic antibacterial activity against carbapenem-resistant Klebsiella pneumoniae 538961 assessed as reduction in microbial growth at 4 ug/ml measured after 16 to 18 hrs in presence of imipenem by microbial dilution method; type: functional; conditions: dose 4 µg/ml, time 16-18 hrs
Escherichia coli [23] = assay: Synergistic antibacterial activity against carbapenem-resistant Escherichia coli BAA-2471 assessed as reduction in microbial growth at 8 ug/ml measured after 16 to 18 hrs in presence of imipenem by microbial dilution method; type: functional; conditions: dose 8 µg/ml, time 16-18 hrs
Escherichia coli [24] = assay: Synergistic antibacterial activity against carbapenem-resistant Escherichia coli BAA-2471 assessed as reduction in microbial growth at 16 ug/ml measured after 16 to 18 hrs in presence of meropenem by microbial dilution method; type: functional; conditions: dose 16 µg/ml, time 16-18 hrs
Klebsiella pneumoniae [25] = assay: Synergistic antibacterial activity against carbapenem-resistant Klebsiella pneumoniae 565345 assessed as reduction in microbial growth at 4 ug/ml measured after 16 to 18 hrs in presence of meropenem by microbial dilution method; type: functional; conditions: dose 4 µg/ml, time 16-18 hrs
[26] = target: Metallo-beta-lactamase type 2 (Bacteria) (UniProt C7C422); assay: Induction of thermal stabilization of NDM-1 (unknown origin) assessed as increase in melting temperature by differential scanning fluorimetry analysis; conditions: dose 3.12-50 µM
HepG2 = assay: Cytotoxicity in human HepG2 cells assessed as inhibition of cell growth measured after 24 hrs by MTT assay; type: functional, cell-based; conditions: HepG2, 24 h
[27] = Metabolic stability in mouse liver microsomes assessed as intrinsic clearance at 1 uM preincubated for 5 mins followed by NADPH addition and measured up to 60 mins by LC-MS/MS analysis; type: ADME, Microsome; conditions: time < 65 min, read-out: CLH
[28] = Cytotoxicity in HEK293 cells assessed as inhibition of cell growth measured after 24 hrs by MTT assay; type: toxicity, cell-based; conditions: human
Escherichia coli [29] = assay: Synergistic antibacterial activity against carbapenem-resistant Escherichia coli 571307 assessed as reduction in microbial growth at 4 ug/ml measured after 16 to 18 hrs in presence of meropenem by microbial dilution method; type: functional; conditions: dose 4 µg/ml, time 16-18 hrs
Klebsiella pneumoniae [30] = assay: Synergistic antibacterial activity against carbapenem-resistant Klebsiella pneumoniae 571278 assessed as reduction in microbial growth at 16 ug/ml measured after 16 to 18 hrs in presence of meropenem by microbial dilution method; type: functional; conditions: dose 16 µg/ml, time 16-18 hrs
[31] = Kinetic solubility of the compound in PBS buffer at pH 7.4 measured after 24 hrs by HPLC analysis; type: physicochemical; conditions: read-out: Kinetic_solubility

Chain of Metallo-beta-lactamase type 2 (Bacteria) (C7C422 whole entry): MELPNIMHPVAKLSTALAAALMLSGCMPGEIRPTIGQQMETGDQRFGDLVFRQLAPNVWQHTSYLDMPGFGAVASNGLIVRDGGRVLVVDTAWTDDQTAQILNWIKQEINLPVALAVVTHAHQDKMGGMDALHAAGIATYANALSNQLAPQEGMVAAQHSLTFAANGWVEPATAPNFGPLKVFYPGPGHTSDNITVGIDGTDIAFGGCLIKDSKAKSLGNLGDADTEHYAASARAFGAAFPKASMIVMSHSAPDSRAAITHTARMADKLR

## COc1ccc(Cl)cc1-c1c(C(=O)O)[nH]c2c1CCc1ccccc1-2
Escherichia coli [1]
  MIC: 8 µg/mL
Klebsiella pneumoniae [2]
  MIC: 16 µg/mL
Escherichia coli [3]
  MIC: 64 µg/mL
Klebsiella pneumoniae [4]
  MIC: 64 µg/mL
Escherichia coli [5]
  MIC: 8 µg/mL
Klebsiella pneumoniae [6]
  MIC: 16 µg/mL
Klebsiella pneumoniae [7]
  MIC: > 64 µg/mL
[8]
  IC50: 0.014 µM
[9]
  ΔTm: 17 °C
Klebsiella pneumoniae [10]
  MIC: 2 µg/mL
[11]
  MIC: 8 µg/mL
[12]
  Tm: 20 °C
Escherichia coli [13]
  MIC: 8 µg/mL
[14]
  MIC: 2 µg/mL
Escherichia coli [15]
  MIC: 1 µg/mL
Escherichia coli [16]
  MIC: < 0.5 µg/mL
Escherichia coli [17]
  MIC: 1 µg/mL
Escherichia coli [18]
  MIC: 32 µg/mL
Escherichia coli [19]
  MIC: 1 µg/mL
Klebsiella pneumoniae [20]
  MIC: 8 µg/mL
Escherichia coli [21]
  MIC: 4 µg/mL
Klebsiella pneumoniae [22]
  MIC: 32 µg/mL
Escherichia coli [23]
  MIC: 16 µg/mL
Escherichia coli [24]
  MIC: 16 µg/mL
Klebsiella pneumoniae [25]
  MIC: 4 µg/mL
[26]
  Activity: Active
HepG2
  IC50: > 400 µM
[27]
  microsomal CLint at 1 µM: 12.9 µL/min/mg
[28]
  IC50 at 24 h: > 200 µM
Escherichia coli [29]
  MIC: 2 µg/mL
Klebsiella pneumoniae [30]
  MIC: 16 µg/mL
[31]
  solubility kinetic at 24 h: 19.7 µg/mL (≈ 55.7 µM)

— ChEMBL document CHEMBL6109129, “Discovery of Conformationally Constrained Dihydro Benzo-Indole Derivatives as Metallo-β-Lactamase Inhibitors to Tackle Multidrug-Resistant Bacterial Infections” (J Med Chem, 2025)
